According to ChEMBL document CHEMBL1128859, “Cmi-206: A potent dual platelet activating factor antagonist and 5-lipoxygenase inhibitor” (Bioorg Med Chem Lett, 1995):

Legend:
[1] = biological target: Platelet-activating factor receptor (Homo sapiens, UniProt P25105); test: In vitro affinity for human PAF receptor on platelet membranes using [3H]PAF displacement.
[2] = biological target: T1, Polyunsaturated fatty acid 5-lipoxygenase (Rattus norvegicus, UniProt P12527); test: In vitro inhibition of 5-lipoxygenase in RBL-2H3 (Rat basophilic leukemia) cells.; format: functional, cell-based
T1 sequence (P12527 whole entry): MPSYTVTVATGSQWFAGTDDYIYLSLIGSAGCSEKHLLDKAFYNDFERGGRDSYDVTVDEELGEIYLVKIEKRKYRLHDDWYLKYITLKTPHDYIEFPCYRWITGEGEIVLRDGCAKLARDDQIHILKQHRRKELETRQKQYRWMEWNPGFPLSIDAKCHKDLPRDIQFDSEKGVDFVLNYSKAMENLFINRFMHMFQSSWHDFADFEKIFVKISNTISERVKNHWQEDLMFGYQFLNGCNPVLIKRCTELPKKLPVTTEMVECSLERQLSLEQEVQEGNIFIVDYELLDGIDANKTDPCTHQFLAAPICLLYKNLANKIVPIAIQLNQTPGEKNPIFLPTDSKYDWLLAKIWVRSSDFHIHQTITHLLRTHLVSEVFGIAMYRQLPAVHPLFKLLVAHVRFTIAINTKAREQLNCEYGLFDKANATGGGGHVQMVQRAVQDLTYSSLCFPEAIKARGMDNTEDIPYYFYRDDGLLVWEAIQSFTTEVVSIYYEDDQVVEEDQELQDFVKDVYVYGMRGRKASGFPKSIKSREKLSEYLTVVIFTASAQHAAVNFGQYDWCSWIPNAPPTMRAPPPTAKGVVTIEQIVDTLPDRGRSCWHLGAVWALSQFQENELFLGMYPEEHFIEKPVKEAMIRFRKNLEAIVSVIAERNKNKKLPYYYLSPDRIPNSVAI

Homo sapiens [3] = species on record: Homo sapiens; test: Inhibition of human whole blood (HWB) LTB4 production in A-23,187-activated human whole blood by the enzyme immunoassay at a dose of 3 uM; format: functional
Mus musculus [4] = test: Ability to antagonize PAF-induced hemoconcentration PAF HTc in mice at a dose of 3 mg/kg; format: functional
Homo sapiens [5] = species on record: Homo sapiens; test: Inhibition of human whole blood (HWB) LTB4 production in A-23,187-activated human whole blood by the enzyme immunoassay; format: functional
Mus musculus [6] = test: Arachidonic acid (AA)-induced ear edema in mice was determined by topically applying AA to ears of mice; format: functional
Rattus norvegicus = test: Concentration of LTB4 was determined by enzyme immunoassay (Ex vivo) rat whole blood after intravenous administration of 5 mg/Kg; format: functional

Platelet-activating factor receptor, sequence (P25105 whole entry): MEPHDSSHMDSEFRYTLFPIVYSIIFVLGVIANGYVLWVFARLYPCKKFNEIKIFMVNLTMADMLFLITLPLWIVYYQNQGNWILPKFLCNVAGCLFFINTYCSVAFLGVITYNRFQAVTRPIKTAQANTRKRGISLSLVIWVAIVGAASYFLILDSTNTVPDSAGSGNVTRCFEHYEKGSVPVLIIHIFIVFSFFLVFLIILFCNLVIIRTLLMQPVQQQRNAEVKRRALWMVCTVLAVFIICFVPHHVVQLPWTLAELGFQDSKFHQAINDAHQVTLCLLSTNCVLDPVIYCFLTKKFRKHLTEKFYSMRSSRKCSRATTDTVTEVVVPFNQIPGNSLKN

SMILES	IC50 [1]	IC50 [2]	also measured
CCCOc1c(NC(=O)N(O)C(C)CC)cc(C2CCC(c3cc(OC)c(OC)c(OC)c3)O2)cc1OC (trans isomer)	25 nM	600 nM	inhibition at 3 µM (Homo sapiens [3]): 57%
CCCOc1cc([C@H]2CC[C@H](c3cc(OC)c(OC)c(OC)c3)O2)cc(N(CC)C(=O)N(O)CCC)c1OCCC	56 nM		
CCCOc1cc([C@H]2CC[C@H](c3cc(OC)c(OC)c(OC)c3)O2)cc(N(CC)C(=O)N(C)O)c1OCCC	68 nM	3070 nM	
CCCOc1cc([C@H]2CC[C@H](c3cc(OC)c(OC)c(OC)c3)O2)cc(N(CC)C(=O)N(O)CC)c1OCCC	17 nM	1340 nM	
CCCOc1c(NC(=O)N(O)CCC)cc(C2CCC(c3cc(OC)c(OC)c(OC)c3)O2)cc1OC (trans isomer)			IC50 ([2]; rbl-2h3): 10000 nM
CCCCN(O)C(=O)Nc1cc(C2CCC(c3cc(OC)c(OC)c(OC)c3)O2)cc(OC)c1OCCC (cis isomer)	1310 nM	500 nM	
CC(c1cc2ccccc2s1)N(O)C(N)=O (stereo not given) [ZILEUTON]			inhibition at 3 µM (Homo sapiens [3]): 75%
CCCNC(=O)N(O)c1cc([C@H]2CC[C@H](c3cc(OC)c(OC)c(OC)c3)O2)cc(OCCC)c1OCCC	91 nM	3000 nM	
CCCCN(O)C(=O)Nc1cc(C2CCC(c3cc(OC)c(OC)c(OC)c3)O2)cc(OC)c1OCCC (stereo in doubt)	33 nM	420 nM	inhibition at 3 µM (Homo sapiens [3]): 64%; IC50 (Homo sapiens [5]): 1680 nM; inhibition in vivo at 3 mg/kg (Mus musculus [4]): 31%; Inhibition (Mus musculus [6]): 60%; inhibition in vivo at 5 mg/kg (Rattus norvegicus): 67%
CCCOc1c(NC(=O)N(O)Cc2ccccc2)cc(C2CCC(c3cc(OC)c(OC)c(OC)c3)O2)cc1OC (cis isomer)	585 nM	8000 nM	
CCCOc1cc([C@H]2CC[C@H](c3cc(OC)c(OC)c(OC)c3)O2)cc(N(O)C(=O)NCC)c1OCCC	59 nM		
CCCOc1c(NC(=O)N(O)Cc2ccccc2)cc(C2CCC(c3cc(OC)c(OC)c(OC)c3)O2)cc1OC (trans isomer)	423 nM	2240 nM	

More lines, main results first:

IC50 [1]	IC50 [2]	SMILES	also measured
514 nM		CCCOc1c(NC(=O)N(C)O)cc(C2CCC(c3cc(OC)c(OC)c(OC)c3)O2)cc1OC (cis isomer)	
30 nM		CCCOc1c(NC(=O)NO)cc(C2CCC(c3cc(OC)c(OC)c(OC)c3)O2)cc1OC (trans isomer)	
58 nM	3000 nM	CCCOc1c(NC(=O)N(O)C(C)C)cc(C2CCC(c3cc(OC)c(OC)c(OC)c3)O2)cc1OC (trans isomer)	
456 nM		CCCOc1c(NC(=O)N(O)C(C)(C)C)cc(C2CCC(c3cc(OC)c(OC)c(OC)c3)O2)cc1OC (cis isomer)	
1000 nM	2540 nM	CCCOc1c(NC(=O)N(O)C2CCCCC2)cc(C2CCC(c3cc(OC)c(OC)c(OC)c3)O2)cc1OC (cis isomer)	
	10000 nM	CCCOc1c(NC(=O)N(O)CCC)cc(C2CCC(c3cc(OC)c(OC)c(OC)c3)O2)cc1OC (stereo in doubt)	
26 nM	2900 nM	CCCOc1c(NC(=O)N(O)C(C)(C)C)cc(C2CCC(c3cc(OC)c(OC)c(OC)c3)O2)cc1OC (trans isomer)	
1610 nM	450 nM	CCCOc1c(NC(=O)N(O)C(C)CC)cc(C2CCC(c3cc(OC)c(OC)c(OC)c3)O2)cc1OC (cis isomer)	
8 nM	150 nM	CCCOc1c(NC(=O)N(O)CC)cc(C2CCC(c3cc(OC)c(OC)c(OC)c3)O2)cc1OC (trans isomer)	inhibition at 3 µM (Homo sapiens [3]): 23%; inhibition in vivo at 3 mg/kg (Mus musculus [4]): 58%
383 nM	3000 nM	CCCOc1c(NC(=O)N(O)CC)cc(C2CCC(c3cc(OC)c(OC)c(OC)c3)O2)cc1OC (stereo in doubt)	
278 nM		CCCOc1c(NC(=O)N(O)C2CCCCC2)cc(C2CCC(c3cc(OC)c(OC)c(OC)c3)O2)cc1OC (trans isomer)	
858 nM	2830 nM	CCCOc1c(NC(=O)N(O)C(C)C)cc(C2CCC(c3cc(OC)c(OC)c(OC)c3)O2)cc1OC (stereo in doubt)	
17 nM	630 nM	CCCOc1c(NC(=O)N(C)O)cc(C2CCC(c3cc(OC)c(OC)c(OC)c3)O2)cc1OC (trans isomer)	
300 nM		CCCOc1c(NC(=O)NO)cc(C2CCC(c3cc(OC)c(OC)c(OC)c3)O2)cc1OC (stereo in doubt)	
